{
  "source": "PubChem BioAssay AID2801",
  "about": "(Sanford-Burnham Center for Chemical Genomics, 2010)",
  "system": "TNFa-induced NF-kB reporter cells, inhibition",
  "test": "analog potency on TNFa NF-kB signaling – cell-based, set 3, SAR follow-up (AID 2801)",
  "data": [
    {"smiles": "CCCCn1c(SCC(=O)Nc2nnc(CC)s2)nc2c1c(=O)n(C)c(=O)n2C", "values": [
      {"measurement": "IC50", "value": 13, "unit": "µM"}
    ]}
  ]
}
